# Measured values taken from patent publication US10214553B2, “Solid state forms of sofosbuvir” (ratiopharm GmbH, priority 2014, dated 2019).
# Legend:
# Format in all cases: physicochemical
# [1] = Compressibility, maximum density at constant pressure of 0.2 MPa (TA-XT2 Texture analyser); details: 0.2 MPa per step, 10 steps
# Procedure: As used herein, and unless indicated otherwise, the term “compressibility” is expressed as maximum density at constant pressure of 0.2 MPa.
# Compression profiles were obtained using a die and a flat-faced punch fitted on a TA-XT2 Texture analyser (Stable Micro Systems Ltd., Godalming, UK).
# 200 mg of micronized crystalline form E of Sofosbuvir obtained according to example 8 is compressed in a steel mould (with the rate of displacement 0.03 mm/s). Cyclic procedure (similar to tapping) was performed: compressing, then retracting, relaxation for 15 s and then repeated compressive steps (altogether 10 steps). Each step exerts 0.2 MPa pressure on to the sample. Sample density is calculated by dividing the weight by the sample volume for each cycle. Maximum density is reached within 10 steps. The maximal compressive displacement was 0.5 mm. The resulting density was: 0.48 g/ml
# [2] = DVS water vapor sorption (hygroscopicity); details: for critical relative humidity in the sorption curve at which the rate of water uptake changes (inflection point): DVS sorption curve; for Change in Mass (%): 25° C.
# Procedure: The improved hygroscopic properties discussed herein above may be expressed by the dynamic water uptake monitored by the DVS instrument. The profile of the dynamic curve obtained may provide insight on the tendency of the substance to deliquescence. […] This behavior indicates a long-term possibility of the stored powder to stick and form lumps.
# DVS measurements were performed SMS DVS instrument
# Humidity range: 0%-90%-0% cycle. […]
# minimum step duration: 60 min maximum step duration: 720 min
# [3] = Solubility at 37° C. by UHPLC/UV; details: for solubility at 15 min / solubility at 1 h: 37 °C, thermodynamic from solid
# Procedure: (§1) Sofosbuvir form 6 prepared according to example 18 above and Sofosbuvir form 7 prepared according to example 16 above was used.
# The solubility was determined as follows:
# 100 mg test substance was weighed into a glass vial, followed by addition of 4 mL solvent (water, 0.01 M HCl, 20 mM sodium acetate/acetic acid [pH 4.5], 50 mM KH2PO4 [pH 6.8]). A stirring bar was added, the vial was fixed in a block heater at 37° C. and the suspension was stirred with 250 rpm. After 15 min and 1 h, samples were withdrawn and filtered through a 0.2 μm PTFE filter. 100 μL of the clear filtrate were diluted with 900 μL acetonitrile/water mixture (1:1) and 1 μL thereof was analyzed by UHPLC/UV:
# Instrument: Agilent 1290 Infinity
# Column: Phenomenex Kinetex XB—C18, 1.7 μm, 50×3 mm
# Solvent A: water+0.2% Formic acid+0.1% HFBA […] heptafluorobutyric acid)
# [4] = Particle size distribution by laser diffractometry (Mastersizer 2000, wet measurement); details: silicone oil
# Procedure: If a wet measurement is used the particles to be measured are dispersed in a dispersant, preferably a dispersant having a refractive index (RI) of 1.403, and the measurement is carried out at 2000 rpm and ultrasound for 120 s prior to measurement. Preferably, unless otherwise indicated the particle size distribution is determined using a wet measurement using a Mastersizer 2000 from Malvern Instruments and Malvern Hydro 2000S wet sample dispersion unit and silicone oil as dispersant. Unless otherwise indicated, the following settings are preferably used:
# as §1
# The particle size distribution was determined using a wet measurement using a Mastersizer 2000 from Malvern Instruments and Malvern Hydro 2000S wet sample dispersion unit and silicone oil as dispersant.
# [5] = Propensity to become electrostatically charged
# [6] = Dissolution, USP apparatus II, paddle method; details: pH 6.8, after 5 minutes
# Procedure: Sofosbuvir form 6 prepared according to example 18 above and Sofosbuvir form 7 prepared according to example 16 above was used. The dissolution of Sofosbuvir Form 7 and Form 6 was measured (in triplicate) in 50 mM phosphate buffer at 37° C. (pH 6.8, 900 mL), using USP apparatus II, paddle method. Every 5 minutes, a probe was taken and measured by UV/VIS at 260 nm and path length 0.1 cm; UV/VIS was measured on an Agilent model 8453 with Chem Station Dissolution Software. 400 mg of Sofosbuvir Form 7 or Form 6 was used for the test, and the percentages are given in relation to 400 mg of the API. The results are represented graphically in FIG. 13.
# [7] = Storage stability of the solid form
structure (smiles),measurement,setting,value
"CC(C)OC(=O)[C@H](C)NP(=O)(OC[C@H]1O[C@@H](n2ccc(=O)[nH]c2=O)[C@](C)(F)[C@@H]1O)Oc1ccccc1 (stereo partly drawn) [(2S)-isopropyl 2-(((((2R,3R,4R,5R)-5-(2,4-dioxo-3,4-dihydropyrimidin-1(2H)-yl)-4-fluoro-3-hydroxy-4-methyltetrahydrofuran-2-yl)methoxy)(phenoxy)phosphoryl)amino)propanoate]",resulting density (compressibility),[1],0.48 g/mL
"CC(C)OC(=O)[C@H](C)NP(=O)(OC[C@H]1O[C@@H](n2ccc(=O)[nH]c2=O)[C@](C)(F)[C@@H]1O)Oc1ccccc1 (stereo partly drawn) [Form 1, (2S)-isopropyl 2-(((((2R,3R,4R,5R)-5-(2,4-dioxo-3,4-dihydropyrimidin-1(2H)-yl)-4-fluoro-3-hydroxy-4-methyltetrahydrofuran-2-yl)methoxy)(phenoxy)phosphoryl)amino)propanoate]",critical relative humidity in the sorption curve at which the rate of water uptake changes (inflection point),[2],about 80 % RH
same,water uptake,"[2]; DVS, above 80% RH",about 5%
same,Change in Mass (%),"[2]; DVS, relative humidity 70%",0.13%
same,Change in Mass (%),"[2]; DVS, relative humidity 90%",5.57%
"CC(C)OC(=O)[C@H](C)NP(=O)(OC[C@H]1O[C@@H](n2ccc(=O)[nH]c2=O)[C@](C)(F)[C@@H]1O)Oc1ccccc1 (stereo partly drawn) [Form 6, (2S)-isopropyl 2-(((((2R,3R,4R,5R)-5-(2,4-dioxo-3,4-dihydropyrimidin-1(2H)-yl)-4-fluoro-3-hydroxy-4-methyltetrahydrofuran-2-yl)methoxy)(phenoxy)phosphoryl)amino)propanoate]",Solubility,"[3]; 0.01 M HCl, 15 min",2500 µg/mL
same,Solubility,"[3]; 0.01 M HCl, 1 h",2400 µg/mL
same,Solubility,"[3]; 20 mM NaOAc/HOAc (pH 4.5), 15 min",2400 µg/mL
same,Solubility,"[3]; 20 mM NaOAc/HOAc (pH 4.5), 1 h",2500 µg/mL
same,Solubility,"[3]; 50 mM KH2PO4 (pH 6.8), 15 min",2300 µg/mL
same,Solubility,"[3]; 50 mM KH2PO4 (pH 6.8), 1 h",2300 µg/mL
same,Solubility,"[3]; water, 15 min",2400 µg/mL
same,Solubility,"[3]; water, 1 h",2300 µg/mL
same,critical relative humidity in the sorption curve at which the rate of water uptake changes (inflection point),[2],about 70 % RH
same,water uptake,"[2]; DVS, above 70% RH",about 1%
same,Change in Mass (%),"[2]; DVS, relative humidity 70%",0.14%
same,Change in Mass (%),"[2]; DVS, relative humidity 90%",1.08%
same,Particle size D10,[4],2.0 μm
same,Particle size D50,[4],8.2 μm
same,Particle size D90,[4],22.9 μm
same,propensity to become electrostatically charged,[5],high propensity to become electrostatically charged
"CC(C)OC(=O)[C@H](C)NP(=O)(OC[C@H]1O[C@@H](n2ccc(=O)[nH]c2=O)[C@](C)(F)[C@@H]1O)Oc1ccccc1 (stereo partly drawn) [Form 7, (2S)-isopropyl 2-(((((2R,3R,4R,5R)-5-(2,4-dioxo-3,4-dihydropyrimidin-1(2H)-yl)-4-fluoro-3-hydroxy-4-methyltetrahydrofuran-2-yl)methoxy)(phenoxy)phosphoryl)amino)propanoate]",solubility (percent dissolved),[6],≥ 65%
same,solubility at 15 min,"[3]; 0.01 M HCl, pH 2, simulated gastric fluid, 15 min",3200 µg/mL
same,solubility at 1 h,"[3]; 0.01 M HCl, pH 2, simulated gastric fluid, 1 h",3200 µg/mL
same,solubility at 15 min,"[3]; 20 mM sodium acetate/acetic acid buffer, pH 4.5, aqueous buffer, 20 mM NaOAc/HOAc (pH 4.5), 15 min",3100 µg/mL
same,solubility at 1 h,"[3]; 20 mM sodium acetate/acetic acid buffer, pH 4.5, aqueous buffer, 20 mM NaOAc/HOAc (pH 4.5), 1 h",3100 µg/mL
same,solubility at 15 min,"[3]; 50 mM KH2PO4 buffer, pH 6.8, aqueous buffer, 50 mM KH2PO4 (pH 6.8), 15 min",3200 µg/mL
same,solubility at 1 h,"[3]; 50 mM KH2PO4 buffer, pH 6.8, aqueous buffer, 50 mM KH2PO4 (pH 6.8), 1 h",3000 µg/mL
same,solubility compared with the solubility of Form 6,"[3]; physiologically relevant solvents, after 15 min and after 1 hour",approximately one third higher
same,solubility at 15 min,"[3]; water, 15 min",3100 µg/mL
same,solubility at 1 h,"[3]; water, 1 h",3100 µg/mL
"CC(C)OC(=O)[C@H](C)NP(=O)(OC[C@H]1O[C@@H](n2ccc(=O)[nH]c2=O)[C@](C)(F)[C@@H]1O)Oc1ccccc1 (stereo partly drawn) [Form E, (2S)-isopropyl 2-(((((2R,3R,4R,5R)-5-(2,4-dioxo-3,4-dihydropyrimidin-1(2H)-yl)-4-fluoro-3-hydroxy-4-methyltetrahydrofuran-2-yl)methoxy)(phenoxy)phosphoryl)amino)propanoate]",hysteresis between the desorption and the absorption isotherm,[2]; DVS,doesn't exhibit any hysteresis
same,critical relative humidity in the sorption curve at which the rate of water uptake changes (inflection point),[2],does not show this inflection point
same,Change in Mass (%),"[2]; DVS, relative humidity 70%",0.07%
same,Change in Mass (%),"[2]; DVS, relative humidity 90%",0.12%
same,stable for,[7]; at 25 degrees,at least 3 months
same,stable for,[7]; at 40 degrees,at least 3 months
